Where two headings read alike, the source gives them in different places.
Legend:
[1] = tested on: normal human keratinocytes; experiment: Inhibition of proliferation of normal human keratinocytes (BrdU incorporation); type: cell-based; conditions: 5 days culture
Protocol: The biological properties analogous to vitamin D can likewise be measured by the capacity of the product to inhibit the proliferation of normal human keratinocytes (NHK in culture). The product is added to NHK cultured under conditions favoring the proliferative state. The product is left in contact with the cells for five days. The number of proliferative cells is measured by incorporation of bromodeoxyuridine (BRdU) into the DNA. The protocol of this test as well as the results obtained with the compounds according to the invention are described in example 8 of the present application.
It is known that 1,25-dihydroxyvitamin D3, called calcitriol and corresponding to natural vitamin D, inhibits the proliferation of human keratinocytes in culture. The method used is the following: the normal human keratinocytes are inoculated at low density into a 24-well plate. After 4 hours, the compounds to be tested are added to the culture medium. After culturing for 5 days, the proliferation of the keratinocytes is determined by incorporation of 5-bromo-2′ deoxyuridine (BrdU) in the DNA. The quantity of BrdU incorporated is then quantified by using the Elisa test (Enzyme Linked Immuno Sorbent Essay, test marketed by Roche Molecular Biochemicals).
The inhibitory effect on the proliferation of the keratinocytes of the compounds according to the invention and of the calcitriol used as a reference compound is summarized in table II which follows.

[2] = tested on: HL60 promyelocytic leukemia cells; experiment: Induction of differentiation of HL60 cells (NBT reduction); type: cell-based; conditions: 4 days culture, NBT-positive cells, read-out: Activation of Differentiation AC 50
Description: The biological properties analogous to vitamin D can likewise be measured by the capacity of the product to induce the differentiation of HL60 promyelocytic leukemia cells. The protocol of this test as well as the results obtained with the compounds according to the invention are described in example 9 of the present application.
Calcitriol induces the differentiation of promyelocytic leukemia cells (HL60) in monocytes/macrophages. This differentiation inductor effect is a well-characterized marker of cellular vitamin D activity. One of the most important antimicrobial products of macrophages is hydrogen peroxide, which can be analyzed experimentally by the reduction of NBT (Nitroblue Tetrazolium).
The method used is the following: The HL60 cells are inoculated into 6-well plates and then treated immediately with the compounds to be tested. After 4 days in culture, the cells are incubated with phorbol TPA ester and NBT for a short period and the differentiated cells, i.e., positive to NBT, are counted.

[3] = tested on: 24-hydroxylase; experiment: In vivo induction of 24-hydroxylase mRNA in SKH mice after single topical application; conditions: for Induction in % vs Induction Calcitriol Tested at 0.01%: topical, 8 hours; for MRNA EXPRESSION OF 24-HYDROXYLASE Induction Factor Versus Ethanol: 50 μl, epidermis 8 hours after application
Description: The agonist activity on vitamin D receptors of the compounds of the invention can be likewise evaluated “in vivo” by induction of 24-hydroxylase in SKH mice. (Kang et. al., Journal of Investigative Dermatology, 1997, 108(4), 513-518). The test protocol used as well as the results obtained with the compounds according to the invention are described in example 10 of the present application. 1]:
Consequently, the agonist activity on receptors of vitamin D of the compounds of the invention can be evaluated “in vivo” by induction of 24-hydroxylase in SKH mice.
The method used is the following: […] mice receive a single topical application of a compound to be tested in solution in ethanol at increasing concentrations. A volume of 50 μl of the product to be tested or of the vehicle alone is applied on the back of the mice with the aid of a pipette.
Other SKH mice receive a single topical application of calcitriol in solution in ethanol at increasing concentrations. A volume of 50 μl of the product to be tested or of the vehicle alone is applied on the back of the mice with the aid of a pipette.
8 hours after topical application, the mice are euthanized, the treated skin is removed and the epidermidis is separated from the dermis. The quantification of the MRNA of the 24-Hydroxylase is carried out by semiquantitative PCR. The results are standardized with respect to the expression of the mRNA of GAPDH and the values for the different concentrations of calcitriol tested and, for the different compounds of the invention tested, are expressed as an induction factor with respect to calcitriol.

[4] = biological target: T1, human VDR receptor (Homo sapiens, UniProt P11473); experiment: Transactivation potential: VDR agonist activity, HeLa cotransfection with p240Hase-CAT reporter; type: cell-based; conditions: dose giving 50% of maximum activity, HeLa cells, 18 hours treatment
T1 construct: expressed in transfected cells; host or cells: HeLa
T1 sequence (P11473 1-427): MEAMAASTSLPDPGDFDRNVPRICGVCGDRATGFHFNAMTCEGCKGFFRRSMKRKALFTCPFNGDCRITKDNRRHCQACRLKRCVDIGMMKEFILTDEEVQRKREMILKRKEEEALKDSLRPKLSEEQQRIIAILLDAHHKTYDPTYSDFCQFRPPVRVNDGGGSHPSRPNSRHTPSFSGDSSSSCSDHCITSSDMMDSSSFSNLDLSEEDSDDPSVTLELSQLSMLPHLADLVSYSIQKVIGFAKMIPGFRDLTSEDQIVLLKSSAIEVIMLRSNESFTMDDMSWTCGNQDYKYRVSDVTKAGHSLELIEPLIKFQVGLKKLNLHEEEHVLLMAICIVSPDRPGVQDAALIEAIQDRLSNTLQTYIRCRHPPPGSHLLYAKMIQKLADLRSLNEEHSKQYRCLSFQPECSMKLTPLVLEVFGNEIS
Description: By way of example, the VDR agonist activity can be tested on the HeLa cell line by cotransfection of an expression vector for the human VDR receptor and of the reporter plasmid p240Hase-CAT. The agonist activity can be characterized in this cotransfection system by the determination of the dose necessary to obtain 50% of the maximum activity of the product (AC50). The detail of the protocol of this test as well as the results obtained with the compounds according to the invention are described in example 7 of the present application.
The VDR agonist activity can be tested on the HeLa cell line, by cotransfection of an expression vector of the human VDR receptor and of the p240Hase-CAT reporter plasmid which contains the region −1399 to +76 of the rat 24-hydroxylase promoter, cloned upstream of the phase coding for the chloramphenicol acetyltransferase (CAT) gene. 18 hours after cotransfection, the test product is added to the medium. After treatment for 18 hours, the measurement of the CAT activity of the cell lysates is carried out by means of an Elisa test (Enzyme Linked Immuno Sorbent Essay, test marketed by Roche Molecular Biochemicals). The agonist activity can be characterized in this cotransfection system by the determination of the dose necessary in order to obtain 50% of the maximum activity of the product (AC50).

[5] = compound tested at 0.01% (weight/volume)

Molecule | AC50 [4] | Induction in % vs Induction Calcitriol Tested at 0.01% [3, 5] | IC50 ([1]; Keratinocyte, 120 h) | AC50 ([2]; Homo sapiens, HL-60, 96 h) | other results
1,25-dihydroxyvitamin D3 [Calcitriol, reference compound] |  | 100% |  |  | IC50 [1]: 0.014 µM; AC50 [2]: 0.007 µM; MRNA EXPRESSION OF 24-HYDROXYLASE Induction Factor Versus Ethanol ([3]; topical 0.0001% (weight/volume) in ethanol): 6.7; MRNA EXPRESSION OF 24-HYDROXYLASE Induction Factor Versus Ethanol ([3]; topical 0.001% (weight/volume) in ethanol): 10.3; MRNA EXPRESSION OF 24-HYDROXYLASE Induction Factor Versus Ethanol ([3]; topical 0.01% (weight/volume) in ethanol): 20.1; MRNA EXPRESSION OF 24-HYDROXYLASE Induction Factor Versus Ethanol ([3]; topical 0.1% (weight/volume) in ethanol): 26
CC/C(=C\C=C\C(O)(CC)CC)c1cccc(CCc2ccc(CO)c(CO)c2)c1 [Example 1, (4E,6E)-7-{3-[2-(3,4-Bis-hydroxymethylphenyl)ethyl]-phenyl}-3-ethylnona-4,6-dien-3-ol] | 0.039 µM |  | 0.045 µM | 0.056 µM | Induction in % vs Induction Calcitriol Tested at 0.01% ([3]; compound tested at 0.1% (weight/volume)): 108%
CC/C(=C\C=C\C(O)(C(F)(F)F)C(F)(F)F)c1cccc(OCc2ccc(CO)c(CO)c2)c1 [Example 3, (3E,5E)-6-[3-(3,4-Bis-hydroxymethylbenzyloxy)pheny]-1,1,1-trifluoro-2 trifluoromethylocta-3,5-dien-2-ol] | 0.007 µM |  | 0.035 µM | 0.007 µM | Induction in % vs Induction Calcitriol Tested at 0.01% ([3]; compound tested at 0.001% (weight/volume)): 59%; activity (24-hydroxylase induction) compared with calcitriol ([3]; in words): very superior
CC/C(=C\C=C\C(O)(C(F)(F)F)C(F)(F)F)c1cccc(CCc2ccc(CO)c(CO)c2)c1 [Example 5, (3E,5E)-6-{3-[2-(3,4-Bis-hydroxymethylphenyl)ethyl]-phenyl}-1,1,1-trifluoro-2-trifluoromethylocta-3,5-dien-2-ol] | 0.003 µM |  | 0.008 µM | 0.005 µM | Induction in % vs Induction Calcitriol Tested at 0.01% ([3]; compound tested at 0.0003% (weight/volume)): 106%

Further lines, with some results ahead:

AC50 [4] | Molecule | Induction in % vs Induction Calcitriol Tested at 0.01% [3, 5] | IC50 ([1]; Keratinocyte, 120 h) | AC50 ([2]; Homo sapiens, HL-60, 96 h) | other results
0.077 µM | CC/C(=C\C#CC(O)(C(F)(F)F)C(F)(F)F)c1cccc(OCc2ccc(CO)c(CO)c2)c1 [Example 2, (E)-6-[3-{3,4-Bis-hydroxymethylbenzyloxy)phenyl]-1,1,1-trifluoro-2-tifluoromethyloct-5-en-3-yn-2-ol] | 58% | 0.153 µM |  | 
0.016 µM | CC/C(=C\C#CC(O)(C(F)(F)F)C(F)(F)F)c1cccc(CCc2ccc(CO)c(CO)c2)c1 [Example 4, (E)-6-{3-[2-(3,4-Bis-hydroxymethylphenyl)ethyl]phenyl}-1,1,1-trifluoro-2-trifluoromethyloct-5-en-3-yn-2-ol] | 89% | 0.029 µM |  | 

Reference: patent publication US7700657B2, “Vitamin D analogs” (Galderma Research & Development, priority 2001, dated 2010)
